Legend:
Format in all cases: cell-based, human
DLD-1 colon cancer cells = assay: MTT cytotoxicity assay, 72 hrs; details: DLD-1, MTT; for IC50: Homo sapiens
Method: (§1) Human DLD-1 colon cancer cells and human PA-1 ovarian cancer cells were obtained from the American Type Culture Collection (Manassas, Va., USA). Cells were maintained in complete media (Advanced DMEM (Invitrogen) and supplemented with 2% foetal bovine serum (Sigma) and 2 mM Glutamax™ (Invitrogen)) at 37° C. in a humidified, 5% CO2 atmosphere. Spheroids were formed by plating 1.5×10^5 cells/ml onto agarose coated 96 well imaging plates (BD Biosciences) and the cells allowed to aggregate for 72 hrs at 37° C. in a humidified, 5% CO2 atmosphere resulting in the formation of single spheroid per well.
(§2) Active compounds and/or nanoparticles were diluted as required in cell media immediately prior to the assay. Cytotoxicity was determined using the MTT assay as follows. 1×10^5 cells were seeded onto each well of flat bottomed 96-well plates and allowed to attach overnight. Solutions of compounds+/−nanoparticles were added to triplicate wells at concentrations spanning a 4-log range and incubated for 72 hrs. MTT (3-(4, 5-dimethylthiazolyl-2)-2,5-diphenyltetrazolium bromide) (1.0 mM) was added to each well and were incubated for a further 4 hrs. The culture medium was removed from each well, DMSO (150 μL) was added, the plate shaken for 5 seconds and the absorbance measured immediately at 600 nm in a Victor^3V microplate reader (Perkin Elmer). IC50 values were determined as the drug concentration that reduced the absorbance to 50% of that in untreated control wells. At least three independent experiments were performed for each compound with triplicate readings in each experiment.

[1] = test system: PA-1 ovarian cancer cells; assay: MTT cytotoxicity assay, 72 hrs; details: PA-1, MTT
Method: as §1, §2

DLD-1 spheroids [2] = assay: Cisplatin accumulation in spheroids by atomic absorption spectroscopy; details: cisplatin 6 ppm without iron oxide particles, 48 hours incubation
Method: as §1
DLD-1 spheroids prepared as per example 25 were dosed as with 100 μl of solution of complete media containing cisplatin and iron oxide nanoparticles from examples 1 and 2 to yield a final concentration of both cisplatin and iron oxide of 6 ppm. The spheroids with iron oxide particles and cisplatin were replaced in the incubator and maintained at 37° C. in a 5% CO2 atmosphere. After 48 hours incubation, the free cisplatin and nanoparticles in the media were washed with excess phosphate buffered saline.

DLD-1 spheroids [3] = assay: Confocal imaging of fluorescent active compound diffusion into spheroids
Method: as §1
(§3) (a) To the suspension of the 3 day old spheroids from example 25, 100 μl of a solution containing nanoparticles incomplete media was added to each spheroid, to yield a final concentration of particles of 10 ppm in 200 μl total volume. he spheroids were replaced in an incubator at 37° C., 5% CO2. […]
DLD-1 spheroids from example 25 were either dosed with NP2 (example 2), which are particles coated with a stabiliser containing a phosphate anchoring group or NP19 or NP23 (examples 19 and 23), which are particles coated with a stabiliser that has no anchoring portion as per example 27b. The spheroid was then imaged by confocal microscopy (as per example 28) to visualise doxorubicin fluorescence.

PA-1 spheroids = assay: Spheroid outgrowth assay
Method: as §1
as §3, with “CO2. After 24 hours incubation, the nanoparticles in the media were removed by washing with excess phosphate buffered saline prior to further experimentation.” for “CO2.”
Spheroids from example 25 were treated as per example 27b and 27c. […] Widefield fluorescence images of the brightfield and Hoechst 33342 stained nuclei were taken of the cells that had grown out from the spheroid (Olympus CellR). To quantitate the outgrowth, the number of nuclei within a 60° angle from the edge of the spheroid was counted. […]

For O=c1[nH]cc(F)c(=O)[nH]1 [5-Fluorouracil], the IC50 (DLD-1 colon cancer cells) was 10 µM and the IC50 ([1]; Homo sapiens) was 10 µM.
For N.N.[Cl][Pt][Cl] [Cisplatin], the “concentration of cisplatin in the spheroids” value (DLD-1 spheroids [2]) was 0.20 ppb and the IC50 [1] was 0.6 µM.
With COc1cccc2c1C(=O)c1c(O)c3c(c(O)c1C2=O)C[C@@](O)(C(=O)CO)C[C@@H]3O[C@H]1C[C@H](N)[C@H](O)[C@H](C)O1 [Doxorubicin] the IC50 (DLD-1 colon cancer cells) was 1 µM, the IC50 ([1]; Homo sapiens) was 1 µM and the “doxorubicin diffusion into the spheroid” value (DLD-1 spheroids [3]; doxorubicin alone) was “approximately 70 μm”.
In the case of O=C1c2c(O)ccc(O)c2C(=O)c2c(NCCNCCO)ccc(NCCNCCO)c21 [Mitoxantrone], the “effectiveness, co-administration versus administration of active compound delayed 24 hours” value (PA-1 spheroids; PA-1 spheroids) is reported as “requires the co-administration of nanoparticles”, the “effectiveness in PA-1 compared to DLD-1 spheroids” value (PA-1 spheroids; active compound co-administered with nanoparticles (examples 2, 3, 4, 5)) is reported as “significantly more effective” and the IC50 (DLD-1 colon cancer cells) is reported as 0.04 µM. For the same compound, the IC50 ([1]; Homo sapiens) was 0.02 µM and the “mitoxantrone diffusion into the spheroid” value (DLD-1 spheroids [3]; mitoxantrone alone) was “approximately 70 μm”.
For CC(=O)O[C@H]1C(=O)[C@@]2(C)[C@H]([C@H](OC(=O)c3ccccc3)[C@]3(O)C[C@H](OC(=O)[C@H](O)[C@@H](NC(=O)c4ccccc4)c4ccccc4)C(C)=C1C3(C)C)[C@]1(OC(C)=O)CO[C@@H]1C[C@@H]2O [Paclitaxel], the “72 hr IC50” value (DLD-1 colon cancer cells; result in words) was “indeterminable*” and the “72 hr IC50” value ([1]; result in words) was “indeterminable*”.

— patent publication US10376589B2, “Method for the treatment of a solid tumour” (The University of Sydney, priority 2011, dated 2019)
